Among the data in ChEMBL document CHEMBL1125472, “5-lipoxygenase: properties, pharmacology, and the quinolinyl(bridged)aryl class of inhibitors” (J Med Chem, 1992) are IC50 and Inhibition values, retold here.

Usually IC50 stands for the concentration at which inhibition is half-maximal. Read a high IC50 as lower potency.

In one experiment the target is T1, Cyclooxygenase (Rattus norvegicus, UniProt P35355+Q63921).
T1 sequence (P35355 whole entry): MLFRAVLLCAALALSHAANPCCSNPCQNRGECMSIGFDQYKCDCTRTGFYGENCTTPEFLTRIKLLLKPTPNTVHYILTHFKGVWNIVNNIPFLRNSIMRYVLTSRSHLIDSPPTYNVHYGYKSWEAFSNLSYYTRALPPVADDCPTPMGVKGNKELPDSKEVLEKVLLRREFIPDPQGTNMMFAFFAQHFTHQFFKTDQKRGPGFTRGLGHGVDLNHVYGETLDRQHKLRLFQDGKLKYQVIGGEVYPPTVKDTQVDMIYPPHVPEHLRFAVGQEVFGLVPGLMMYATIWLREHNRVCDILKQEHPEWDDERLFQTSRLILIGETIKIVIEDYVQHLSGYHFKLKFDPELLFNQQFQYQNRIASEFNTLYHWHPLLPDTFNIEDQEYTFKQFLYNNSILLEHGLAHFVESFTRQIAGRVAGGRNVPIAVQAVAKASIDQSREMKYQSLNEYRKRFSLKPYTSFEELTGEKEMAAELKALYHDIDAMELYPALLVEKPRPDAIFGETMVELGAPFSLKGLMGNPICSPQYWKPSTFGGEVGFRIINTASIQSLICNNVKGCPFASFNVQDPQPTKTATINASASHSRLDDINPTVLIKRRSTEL
T1 sequence (Q63921 whole entry): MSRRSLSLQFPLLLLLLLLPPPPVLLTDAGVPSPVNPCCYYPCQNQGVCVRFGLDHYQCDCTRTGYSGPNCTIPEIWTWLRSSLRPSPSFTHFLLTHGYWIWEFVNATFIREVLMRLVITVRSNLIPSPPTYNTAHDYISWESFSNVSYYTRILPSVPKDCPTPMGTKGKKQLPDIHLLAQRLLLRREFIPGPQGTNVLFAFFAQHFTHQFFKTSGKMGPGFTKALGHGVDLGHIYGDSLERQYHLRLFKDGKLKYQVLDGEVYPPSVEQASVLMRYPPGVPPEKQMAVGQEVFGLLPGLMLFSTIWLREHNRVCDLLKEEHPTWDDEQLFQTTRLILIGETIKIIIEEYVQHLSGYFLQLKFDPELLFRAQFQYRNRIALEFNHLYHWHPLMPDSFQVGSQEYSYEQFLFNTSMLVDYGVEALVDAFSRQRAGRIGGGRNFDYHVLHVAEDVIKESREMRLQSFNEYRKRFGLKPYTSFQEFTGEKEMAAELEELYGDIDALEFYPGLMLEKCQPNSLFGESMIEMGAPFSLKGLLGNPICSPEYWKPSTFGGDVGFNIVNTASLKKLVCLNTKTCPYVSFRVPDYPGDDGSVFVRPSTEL
Kind of experiment: The compound was tested for inhibitory activity against cyclooxygenase in rat polymorphonuclear leukocytes[PMNS]. It is filed as cell-based.

The target of experiment [1] is T2, Polyunsaturated fatty acid 5-lipoxygenase (Rattus norvegicus) (UniProt P12527).
T2 sequence (whole entry): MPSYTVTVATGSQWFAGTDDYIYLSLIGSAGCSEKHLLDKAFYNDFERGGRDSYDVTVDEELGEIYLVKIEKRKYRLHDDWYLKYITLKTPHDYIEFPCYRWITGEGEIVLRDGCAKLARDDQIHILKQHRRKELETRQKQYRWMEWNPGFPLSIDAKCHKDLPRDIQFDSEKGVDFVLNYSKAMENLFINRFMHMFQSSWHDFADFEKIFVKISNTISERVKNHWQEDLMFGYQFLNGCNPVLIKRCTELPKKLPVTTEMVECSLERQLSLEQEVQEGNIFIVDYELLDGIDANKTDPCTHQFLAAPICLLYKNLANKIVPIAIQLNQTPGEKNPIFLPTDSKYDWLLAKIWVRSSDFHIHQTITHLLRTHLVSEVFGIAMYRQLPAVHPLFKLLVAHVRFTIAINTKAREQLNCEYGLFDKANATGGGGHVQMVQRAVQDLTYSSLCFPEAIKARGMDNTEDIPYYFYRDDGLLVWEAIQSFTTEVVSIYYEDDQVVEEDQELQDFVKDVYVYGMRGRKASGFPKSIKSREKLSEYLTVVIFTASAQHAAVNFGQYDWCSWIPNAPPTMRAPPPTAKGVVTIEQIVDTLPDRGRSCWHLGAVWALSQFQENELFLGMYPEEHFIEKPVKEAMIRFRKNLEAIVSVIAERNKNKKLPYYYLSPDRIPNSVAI
Kind of experiment: The compound was tested for inhibition of 5-lipoxygenase in rat RBL-2H3 cells. It is filed as cell-based.

The next experiment has as its system RBL-2H3. Kind of experiment: The compound was tested for inhibition LTC4 synthesis in RBL-2H3 Cells. It is filed as functional, Rattus norvegicus.

As to `c1ccc2nc(COc3cccc4ccccc34)ccc2c1`, the IC50 on Cyclooxygenase was 6.3 µM. For the same molecule, the Inhibition in experiment [1] was over 10 µM; in the experiment on RBL-2H3, 450 nM.
